According to ChEMBL document CHEMBL4765339, “Design, synthesis, and biological evaluation of 4-substituted-3,4-dihydrobenzo[h]quinoline-2,5,6(1H)-triones as NQO1-directed antitumor agents” (Eur J Med Chem, 2020):

What was measured:
[1] = target: NAD(P)H dehydrogenase [quinone] 1 (Homo sapiens) (UniProt P15559); experiment: Substrate activity at recombinant human C-terminal His-tagged NQO1 (1 to 274 residues) expressed in Escherichia coli assessed as enzyme activity by measuring oxidation of NADPH incubated for 5 mins measured per micromol of enzyme every 5 sec for 1 mins by UV-visible spectrophotometry
[2] = system: HepG2; experiment: Antitumor activity against human HepG2 cells xenografted in athymic nude mouse assessed as inhibition of tumor growth at 20 mg/kg, iv administered once every 2 days for 19 days by caliper analysis relative to control; format: functional; settings: 456 h, time 19 day
[3] = Selectivity index, ratio of GI50 for human A549 cells pretreated for 1 hr with NQO1 inhibitor, dicoumarol followed by incubation with compound for 48 hrs to GI50 for human A549 cells measured after 48 hrs by MTT assay; format: functional
[4] = system: HepG2; experiment: Induction of ROS generation in human HepG2 cells at 5 uM by DCFH-DA staining based flow cytometry analysis; format: functional, cell-based; settings: time 3-5 hrs, TDE = time-dependent effect
[5] = system: HepG2; experiment: Cytotoxicity against human HepG2 cells assessed as reduction in cell growth pretreated for 1 hr with NQO1 inhibitor, dicoumarol followed by incubation with compound for 48 hrs by MTT assay; format: functional
[6] = system: HepG2; experiment: Cytotoxicity against human HepG2 cells assessed as reduction in cell growth incubated for 48 hrs by MTT assay; format: functional
[7] = system: HepG2; experiment: Cytotoxicity against human HepG2 cells assessed as reduction in cell growth pretreated for 1 hr with ROS scavenger, N-acetyl cysteine followed by incubation with compound for 48 hrs by MTT assay; format: functional
[8] = system: A549; experiment: Cytotoxicity against human A549 cells assessed as reduction in cell growth pretreated for 1 hr with ROS scavenger, N-acetyl cysteine followed by incubation with compound for 48 hrs by MTT assay; format: functional
[9] = Selectivity index, ratio of GI50 for human HepG2 cells pretreated for 1 hr with ROS scavenger, N-acetyl cysteine followed by incubation with compound for 48 hrs to GI50 for human HepG2 cells measured after 48 hrs by MTT assay; format: functional
[10] = Selectivity index, ratio of GI50 for human A549 cells pretreated for 1 hr with ROS scavenger, N-acetyl cysteine followed by incubation with compound for 48 hrs to GI50 for human A549 cells measured after 48 hrs by MTT assay; format: functional
[11] = system: A549; experiment: Cytotoxicity against human A549 cells assessed as reduction in cell growth pretreated for 1 hr with NQO1 inhibitor, dicoumarol followed by incubation with compound for 48 hrs by MTT assay; format: functional
[12] = system: MCF7; experiment: Cytotoxicity against NQO1-rich human MCF7 cells assessed as reduction in cell growth incubated for 48 hrs by MTT assay; format: functional
[13] = Selectivity index, ratio of GI50 for human HepG2 cells pretreated for 1 hr with NQO1 inhibitor, dicoumarol followed by incubation with compound for 48 hrs to GI50 for human HepG2 cells measured after 48 hrs by MTT assay; format: functional
[14] = Cytotoxicity against human L02 cells assessed as reduction in cell growth incubated for 48 hrs by MTT assay; format: cell-based
[15] = system: A549; experiment: Cytotoxicity against human A549 cells assessed as reduction in cell growth incubated for 48 hrs by MTT assay; format: functional

SMILES	Activity [1] [µmol/min]	other results
Cc1ccccc1C1CC(=O)NC2=C1C(=O)C(=O)c1ccccc12 (stereo not drawn)	448	
CCCCCC1CC(=O)NC2=C1C(=O)C(=O)c1ccccc12 (stereo not drawn)	175	
CC1(C)CCC2=C(O1)c1ccccc1C(=O)C2=O [LAPACHONE]		inhibition in vivo at 20 mg/kg [2]: 67.3%; RatioGI50 [3]: 2; Activity [4]: Tde; GI50 [5]: 6.3 µM; GI50 [6]: 2.83 µM; GI50 [7]: 6.21 µM; GI50 [8]: 6.19 µM; RatioGI50 [9]: 2; RatioGI50 [10]: 2; GI50 [11]: 6 µM; GI50 [12]: 4.17 µM; RatioGI50 [13]: 2; GI50 at 48 h [14]: 4.54 µM; GI50 [15]: 3.32 µM
O=C1CC(c2ccc(F)cc2F)C2=C(N1)c1ccccc1C(=O)C2=O (stereo not drawn)	936	
COc1ccc(OC)c(C2CC(=O)NC3=C2C(=O)C(=O)c2ccccc23)c1 (stereo not drawn)	180	
COc1ccc(C2CC(=O)NC3=C2C(=O)C(=O)c2ccccc23)cc1F (stereo not drawn)	192	
O=C1CC(c2c(F)cccc2F)C2=C(N1)c1ccccc1C(=O)C2=O (stereo not drawn)	160	
O=C1CC(c2ccccc2F)C2=C(N1)c1ccccc1C(=O)C2=O (stereo not drawn)	1360	GI50 [6]: 2.57 µM; GI50 [12]: 2.3 µM; GI50 [15]: 3.89 µM
O=C1CC(c2ccc(Cl)cc2Cl)C2=C(N1)c1ccccc1C(=O)C2=O (stereo not drawn)	760	GI50 [6]: 3.27 µM; GI50 [12]: 8.81 µM; GI50 [15]: 3.13 µM
CCCC1CC(=O)NC2=C1C(=O)C(=O)c1ccccc12 (stereo not drawn)	486	
O=C1CC(c2ccc(Cl)cc2)C2=C(N1)c1ccccc1C(=O)C2=O (stereo not drawn)	557	
Cc1ccc(C2CC(=O)NC3=C2C(=O)C(=O)c2ccccc23)cc1 (stereo not drawn)	275	
Cc1cccc(C2CC(=O)NC3=C2C(=O)C(=O)c2ccccc23)c1 (stereo not drawn)	333	
O=C1CC(c2cccc(O)c2)C2=C(N1)c1ccccc1C(=O)C2=O (stereo not drawn)	509	
O=C1CC(c2ccc(F)cc2)C2=C(N1)c1ccccc1C(=O)C2=O (stereo not drawn)	392	
O=C1CC(c2ccccc2Cl)C2=C(N1)c1ccccc1C(=O)C2=O (stereo not drawn)	467	
O=C1CC(c2cccc(C(F)(F)F)c2)C2=C(N1)c1ccccc1C(=O)C2=O (stereo not drawn)	1030	GI50 [6]: 4.24 µM; GI50 [12]: 8.96 µM; GI50 [15]: 12.6 µM
O=C1CC(c2ccco2)C2=C(N1)c1ccccc1C(=O)C2=O (stereo not drawn)	613	
CC(C)C1CC(=O)NC2=C1C(=O)C(=O)c1ccccc12 (stereo not drawn)	786	
COc1cccc(C2CC(=O)NC3=C2C(=O)C(=O)c2ccccc23)c1 (stereo not drawn)	586	
O=C1CC(c2cccs2)C2=C(N1)c1ccccc1C(=O)C2=O (stereo not drawn)	621	
O=C1CC(c2ccccc2)C2=C(N1)c1ccccc1C(=O)C2=O (stereo not drawn)	364	GI50 [6]: 3.09 µM; GI50 [12]: 15.3 µM; GI50 [15]: 11.7 µM
O=C1CC(C2CCCCC2)C2=C(N1)c1ccccc1C(=O)C2=O (stereo not drawn)	283	
COc1cc(C2CC(=O)NC3=C2C(=O)C(=O)c2ccccc23)cc(OC)c1OC (stereo not drawn)	684	
COc1ccccc1C1CC(=O)NC2=C1C(=O)C(=O)c1ccccc12 (stereo not drawn)	354	
O=C1CC(c2ccc([N+](=O)[O-])cc2)C2=C(N1)c1ccccc1C(=O)C2=O (stereo not drawn)	182	
COc1cc(OC)cc(C2CC(=O)NC3=C2C(=O)C(=O)c2ccccc23)c1 (stereo not drawn)	194	
O=C1CC(c2cc([N+](=O)[O-])ccc2Cl)C2=C(N1)c1ccccc1C(=O)C2=O (stereo not drawn)	195	
O=C1CC(C2CCCC2)C2=C(N1)c1ccccc1C(=O)C2=O (stereo not drawn)	491	
COc1cc(C2CC(=O)NC3=C2C(=O)C(=O)c2ccccc23)ccc1O (stereo not drawn)	1440	GI50 [6]: 2.24 µM; GI50 [12]: 1.89 µM; GI50 [15]: 4.38 µM
